In publication PMC12168924, “Construction of the reduced nicotinamide adenine dinucleotide salvage pathway in artificial cells and its application in amino acid synthesis” (Chemical Science, 2025):

Key:
[1] = target: T1, ribose-phosphate pyrophosphokinase (RPPK) (Mycobacterium tuberculosis, UniProt P9WKE3); assay: HPLC of AMP formation, inhibition at rising ADP; type: biochemical; details: inhibitor; assay per b47: R-5-P, ATP, MgCl2, 40 mM KH2PO4, Tris-HCl pH 8.0, 37 °C
T1 construct: gene prs

[2] = target: T2, nicotinamide phosphoribosyltransferase (NAMPT) (Chitinophaga pinensis, UniProt A0A979FZM9); assay: HPLC of NMN formation; type: biochemical; details: PRPP made in situ by RPPK, 5 mM MgCl2, pH 8.0, 37 °C
T2 construct: gene Cpin_0607
T2 sequence (A0A979FZM9 1-471): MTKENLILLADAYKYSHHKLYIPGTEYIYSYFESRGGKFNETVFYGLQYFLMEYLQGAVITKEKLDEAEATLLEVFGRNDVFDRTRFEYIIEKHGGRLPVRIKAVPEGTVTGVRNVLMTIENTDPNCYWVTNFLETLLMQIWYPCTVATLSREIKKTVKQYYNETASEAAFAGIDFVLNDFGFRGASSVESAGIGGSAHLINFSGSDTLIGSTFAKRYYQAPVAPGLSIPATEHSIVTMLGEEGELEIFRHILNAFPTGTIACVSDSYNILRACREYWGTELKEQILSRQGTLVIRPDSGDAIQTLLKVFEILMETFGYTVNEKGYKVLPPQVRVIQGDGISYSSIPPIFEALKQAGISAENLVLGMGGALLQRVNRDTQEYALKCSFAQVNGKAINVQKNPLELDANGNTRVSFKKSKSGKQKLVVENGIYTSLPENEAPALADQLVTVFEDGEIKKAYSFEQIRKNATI

HPLC of NMN depletion = substrate: NC(=O)c1ccc[n+]([C@@H]2O[C@H](COP(=O)(O)O)[C@@H](O)[C@H]2O)c1; assay: HPLC of NMN depletion; type: biochemical, Acinetobacter baylyi; details: assay per b51: ATP, MgCl2, 40 mM KH2PO4, 50 mM Tris-HCl pH 8.0, 37 °C, kinetic details in supplement

T1 sequence (P9WKE3 whole entry): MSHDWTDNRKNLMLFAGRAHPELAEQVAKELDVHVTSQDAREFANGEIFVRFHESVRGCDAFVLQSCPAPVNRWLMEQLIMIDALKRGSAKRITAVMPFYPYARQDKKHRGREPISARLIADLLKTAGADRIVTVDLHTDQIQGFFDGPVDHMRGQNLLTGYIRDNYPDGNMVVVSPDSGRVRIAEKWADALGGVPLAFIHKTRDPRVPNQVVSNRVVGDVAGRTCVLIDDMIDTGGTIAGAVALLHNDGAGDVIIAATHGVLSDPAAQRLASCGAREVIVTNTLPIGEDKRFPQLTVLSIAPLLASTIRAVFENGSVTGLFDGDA

## Nc1ncnc2c1ncn2[C@@H]1O[C@H](COP(=O)(O)OP(=O)(O)O)[C@@H](O)[C@H]1O [ADP]
[1]
  HPLC of AMP formation, inhibition at rising ADP: ADP was found to significantly inhibit RPPK activity

## O=P(O)(O)OC[C@H]1O[C@H](OP(=O)(O)OP(=O)(O)O)[C@H](O)[C@@H]1O [PRPP]
[2]
  HPLC of NMN formation: PRPP, an enzyme cascade was employed to synthesize PRPP for assessing NAMPT activity

B1: nicotinamide mononucleotide adenylyltransferase (NMNAT) (Acinetobacter baylyi ADP1) (protein)
chain: MYKFDYLVFIGRFQPFHFAHLQTIQIALQQSREVIIALGSAQPERNIKNPFLAEERQKMILANFSAEDQARIHFVNIIDVYNDQKWVEQVKQLVNAIIESRSHVGLIGHFKDESSYYLKLFPEWTMVELESLKESMSATPMREAYYEGKIIESAFPEGTIQFLKTFQDSEIYKQLQQKYRAQDSSNLI
HPLC of NMN depletion
  Km: 0.3966 ± 0.0596 mM
